# Experimental data published in PMC8650031, “Santin and cirsimaritin from Betula pubescens and Betula pendula buds induce apoptosis in human digestive system cancer cells” (Journal of Cellular and Molecular Medicine, 2021).
# Tests used:
# DLD‐1 cells [1] = experiment: [3H]-thymidine incorporation (DNA biosynthesis), DLD-1; format: cell-based, human; settings: DLD-1, 50 μM, 48 h
# Method: (§1) Cells were plated in 24‐well plates at 4 × 10^4 cells per well and allowed to adhere for 24 h. Cells were treated with the various concentrations of flavonoids (25, 50 and 100 μM) in 1 mL medium containing 0.5 μCi [^3H]‐thymidine (#MT6037, Hartmann Analytic, Germany) for 48 h. Medium was discarded, and cells were rinsed three times with phosphate buffered saline (PBS), and solubilized with 1 mL of 0.1 M sodium hydroxide containing 1% sodium dodecyl sulphate. Then, 9 mL of scintillation liquid (PerkinElmer, USA) was added, and radioactivity incorporated into DNA was measured using a scintillation counter.
# HepG2 cells [2] = experiment: Annexin V/propidium iodide apoptosis assay, HepG2; format: cell-based, human; settings: HepG2, 12.5 μM, 48 h
# Method: (§2) Cells were seeded at a density of 1 × 10^5 cells per well in 6-well plates and allowed to adhere for 24 h. Cells were treated with various concentrations of flavonoids (12.5, 25, 50 and 100 μM) for 48 h. Floating and adherent cells were collected and assayed using a Dead Cell Apoptosis Kit with annexin V-fluorescein isothiocyanate (FITC) and propidium iodide (PI), for flow cytometry (#V13242, Thermo Fisher Scientific, USA), according to the manufacturer’s protocol. Briefly, cells were dispersed in 100 μL annexin-binding buffer containing 5 μL annexin V-FITC conjugate solution, 1 μg/mL PI and 1 μg/mL Hoechst 33342, and incubated for 15 min at room temperature. Then 400 μL of annexin-binding buffer was added, and the cell suspension was transferred to 96-well plates and visualised using fluorescence microscopy on a BD Pathway 855 system (Becton Dickinson, USA). Early […]
# (§3) red and blue fluorescence. […]
# p53 in HepG2 cells = experiment: p53 expression by Western blot and fluorescence microscopy, HepG2; format: cell-based, human; settings: HepG2, 48 h treatment
# Method: (§4) Cells were seeded at a density of 1 × 10^5 cells per well in 6-well plates and allowed to adhere for 24 h. Cells were treated with various concentrations of flavonoids (12.5, 25, 50 and 100 […]
# (§5) Adherent and floating cells were harvested and sonicated. Obtained homogenates were supplemented with 1% protease and phosphatase inhibitor cocktail (#78440, Thermo Fisher Scientific, USA). A Lowry assay was performed to quantify protein content in the homogenates. Proteins (20–40 μg) were resolved on 7.5%, 10% or 12% SDS-PAGE gels using the Mini-Protean Tetra system (Bio-Rad, USA). Proteins were transferred to nitrocellulose membranes (Bio-Rad, USA) using the Mini Trans-Blot Cell wet blotting system (Bio-Rad, USA). Membranes were blocked with 5% skim milk for 1 hour at room temperature and probed overnight at 4 °C with primary antibodies. The following antibodies […]
# (§6) 1:1000), purchased from Cell Signaling Technology (USA); anti-p53 antibody (#sc-126, […]
# (§7) 1:500) obtained from Santa Cruz Biotechnology (USA); and anti-actin antibody (#A2066, 1:2000) purchased from Sigma-Aldrich (USA). After extensive washes, a secondary antibody solution in 5% skim milk (anti-mouse IgG-HRP, Sigma-Aldrich, #A9044, 1:5000; anti-rabbit IgG-HRP, Sigma-Aldrich, #A9169, 1:5000) was added for 1 h at room temperature.
# (§8) Membranes were incubated with ECL-HRP substrate (GE Healthcare, USA) and the signal was detected using the BioSpectrum Imaging System (Ultra-Violet Products, Ltd., UK).
# (§9) 2.8. Immunofluorescence microscopy
# (§10) Cells were plated in 96-well plates at 1 × 10^4 cells per well and allowed to adhere for 24 h.
# (§11) Cells were treated with the respective concentration of flavonoids and incubated for 48 h. […]
# (§12) The mass spectrometric detector was calibrated by analyzing flavonoid solutions in the concentration range 0.06‒2.0 mg/ml in the mode of selective monitoring of the most intense ions (M+ ‒ CH3) in the spectra of TMS derivatives of the determined components (Table S1).
# p53 in AGS cells = experiment: p53 expression by Western blot and fluorescence microscopy, AGS; format: cell-based, human; settings: 48 h treatment
# Method: as §4, §5, §6, §7, §8, §9, §10, §11, §12
# DLD‐1 cells [3] = experiment: Colony formation assay, DLD-1; format: cell-based, human; settings: DLD-1, 6.25 μM, 48 h treatment then 7 days culture
# Method: (§13) 2.5. Colony formation assay
# (§14) In total, 250 cells were plated in each well of 12-well plates and allowed to adhere for 24 h.
# (§15) Cells were treated with various concentrations of flavonoids (3.125, 6.25, 12.5, 25, 50 and 100 μM) for 48 h. Medium was discarded and fresh medium was added. After seven days, culture medium was removed and cells were washed once with PBS. Then, cells were fixed with 4% formaldehyde and stained with 0.1% crystal violet. […]
# HepG2 cells [4] = experiment: Colony formation assay, HepG2; format: cell-based, human; settings: HepG2, 3.125 μM, 48 h treatment then 7 days culture
# Method: as §13, §14, §15
# DLD‐1 cells [5] = experiment: Annexin V/propidium iodide apoptosis assay, DLD-1; format: cell-based, human; settings: DLD-1, 12.5 μM, 48 h
# Method: as §2, §3
# [6] = tested on: hepatocellular carcinoma HepG2 cells; experiment: MTT cell viability assay, HepG2 cells; format: cell-based, human; settings: Homo sapiens, MTT
# Method: (§16) Viability of cells was determined using the MTT assay. Cells were plated in 96‐well plates at 1 × 10^4 cells per well and allowed to adhere for 24 h. […] MTT (3‐(4,5‐Dimethyl‐2‐thiazolyl)‐2,5‐diphenyl‐2H‐tetrazolium bromide, Sigma‐Aldrich, USA) solution was added to each well, and cells were incubated at 37°C for 4 h. The medium was then removed, and formazan crystals were dissolved in 100 μL of DMSO and 12.5 μL of Sorensen's glycine buffer on a plate shaker. Absorbance was measured at 570 nm using a microplate reader. IC50 values were calculated using GraphPad Prism software.
# AGS cells [7] = experiment: Annexin V/propidium iodide apoptosis assay, AGS; format: cell-based, human; settings: 12.5 μM, 48 h
# Method: as §2, §3
# HepG2 cells [8] = experiment: [3H]-thymidine incorporation (DNA biosynthesis), HepG2; format: cell-based, human; settings: HepG2, 50 μM, 48 h
# Method: as §1
# [9] = tested on: normal human skin fibroblasts (CCD25Sk); experiment: MTT cell viability assay, normal fibroblasts; format: cell-based; settings: Skin fibroblast
# Method: as §16
# [10] = tested on: gastric adenocarcinoma AGS cells; experiment: MTT cell viability assay, AGS cells; format: cell-based, human; settings: Homo sapiens, MTT
# Method: as §16
# AGS cells [11] = experiment: [3H]-thymidine incorporation (DNA biosynthesis), AGS; format: cell-based, human; settings: 50 μM, 48 h
# Method: as §1
# p53 in DLD‐1 cells = experiment: p53 expression by Western blot and fluorescence microscopy, DLD-1; format: cell-based, human; settings: DLD-1, 48 h treatment
# Method: as §4, §5, §6, §7, §8, §9, §10, §11, §12
# AGS cells [12] = experiment: Colony formation assay, AGS; format: cell-based, human; settings: 3.125 μM, 48 h treatment then 7 days culture
# Method: as §13, §14, §15
# [13] = tested on: colorectal adenocarcinoma DLD‐1 cells; experiment: MTT cell viability assay, DLD-1 cells; format: cell-based, human; settings: Homo sapiens, MTT
# Method: as §16
structure (smiles),measurement,setting,value
COc1ccc(-c2oc3cc(O)c(OC)c(O)c3c(=O)c2OC)cc1 [santin],reduction of [3H]-thymidine incorporation,DLD‐1 cells [1],35.0%
same,percentage of cells in the early stage of apoptosis,HepG2 cells [2],36.6%
same,percentage of cells in the late stage of apoptosis,HepG2 cells [2],16.1%
same,p53 level,p53 in HepG2 cells,increased significantly
same,p53 level,p53 in AGS cells,increased significantly
same,decrease in number of colonies,DLD‐1 cells [3],60%
same,decrease in colony numbers,HepG2 cells [4],65.8%
same,percentage of cells in the early stage of apoptosis,DLD‐1 cells [5],54.8%
same,percentage of cells in the late stage of apoptosis,DLD‐1 cells [5],6.7%
same,IC50,"[6]; HepG2, 24 h",> 50 µM
same,IC50,"[6]; HepG2, 48 h",19.8 ± 0.9 µM
same,IC50,"[6]; HepG2, 72 h",22.7 ± 1.6 µM
same,percentage of cells in the early stage of apoptosis,AGS cells [7],65.8%
same,percentage of cells in the late stage of apoptosis,AGS cells [7],7.6%
same,reduction of [3H]-thymidine incorporation,HepG2 cells [8],74.9%
same,IC50,[9]; 24 h,> 50 µM
same,IC50,[9]; 48 h,> 50 µM
same,IC50,[9]; 72 h,> 50 µM
same,IC50,[10]; 24 h,> 50 µM
same,IC50,[10]; 48 h,17.1 ± 0.8 µM
same,IC50,[10]; 72 h,13.9 ± 1.2 µM
same,reduction of [3H]-thymidine incorporation,AGS cells [11],48.0%
same,p53 level,p53 in DLD‐1 cells,decreased
same,decrease in colony numbers,AGS cells [12],77.4%
same,IC50,"[13]; DLD-1, 24 h",> 50 µM
same,IC50,"[13]; DLD-1, 48 h",28 ± 1.3 µM
same,IC50,"[13]; DLD-1, 72 h",36.5 ± 2.5 µM
